A short description of data set [1]: Solubility in aqueous solutions. As to conditions: aqueous solution. The class given is physicochemical. An excerpt: In an embodiment prodrugs of the present invention are suitable for oral administration. The skilled person understands that the pH of the gastrointestinal tract changes along its length. For example, the stomach has a pH of around pH 1.5 and the GI tract after the stomach has a pH of around 5 to 7.5. For more detail see, for example, Measurement of gastrointestinal pH profiles in normal ambulant human subjects, Gut. 1988 August; 29(8): 1035-1041. Improved solubility is expected to result in improved absorption, and therefore improved oral bioavailability. Thus improved solubility at any pH value between around pH 1.5 to 8 is expected to improve oral bioavailability. Compounds of the invention were assessed for solubility in aqueous solutions having a pH of from 2 to 10. In an embodiment prodrugs of the invention have a solubility of >0.5 mg/mL in an aqueous solution having a pH of from 2 to 8. In an embodiment prodrugs have a solubility of >5.0 mg/mL, or >10.0 mg/mL, >100.0 mg/mL, or >200.0 mg/mL. In an embodiment the prodrugs have the aforementioned aqueous solubility at a pH within the range of from 4 to 8, or from 6 to 8.
In an embodiment prodrugs of the invention are administered intravenously. High prodrug solubility is advantageous in order to reduce the volume of solution administered to the patient, and to reduce the risk of damage to the circulatory system. Solubility of >10 mg/mL is preferred. Yet more preferred is solubility of >30 mg/mL or >100.0 mg/mL. Yet more preferred is solubility of >200.0 mg/mL. The solubility is measured in an aqueous solution having a pH of from 2 to 10, which pH range is advantageous for intravenous prodrug delivery. See, for example, A guide on intravenous drug compatibilities based on their pH, Nasser S C et al./Pharmacie Globale (IJCP) 2010, 5 (01)). In an embodiment the prodrugs of the claimed invention have solubility of >10 mg/mL in an aqueous solution having a pH of from 2 to 10.

Data set [2] has as its system high K+ evoked CSD. Particulars: rats; cited from earlier work.
For data set [3], the system named is unique stereo-selective site in human brain. As to conditions: cited from earlier work.
Data set [4] has as its system high K+ evoked CSD. Particulars: cats; cited from earlier work.
Data set [5] concerns unique stereo-selective site in rat brain. Particulars: cited from earlier work.

Structures are written as SMILES. ≈ marks a conversion by molar mass, not a printed value. Like-named read-outs stand apart in the source and are kept apart here. Some results are limits rather than exact numbers.

On to `CC(=O)c1ccc2c(c1)[C@H](NC(=O)c1ccc(F)cc1)[C@@H](OC(=O)[C@@H](NC(=O)[C@@H](N)C(C)C)C(C)C)C(C)(C)O2.Cl` [Example 4, (3R,4S)-6-Acetyl-4-[(4-fluorobenzene)amido]-2,2-dimethyl-3,4-dihydro-2H-1-benzopyran-3-yl (2S)-2-[(2S)-2-amino-3-methylbutanamido]-3-methylbutanoate hydrochloride], for which the solubility in data set [1] (pH 4.2, aqueous buffer) is more than 10000 µg/mL. For the compound `CC(=O)c1ccc2c(c1)[C@H](NC(=O)c1ccc(F)cc1)[C@@H](OC(=O)[C@@H](N)C(C)C)C(C)(C)O2.Cl` [Example 3, (3R,4S)-6-Acetyl-4-[(4-fluorobenzene)amido]-2,2-dimethyl-3,4-dihydro-2H-1-benzopyran-3-yl (2S)-2-amino-3-methylbutanoate hydrochloride], the solubility in data set [1] (pH 3.6, aqueous buffer) is less than 1000 µg/mL. The compound `CC(=O)c1ccc2c(c1)[C@H](NC(=O)c1ccc(F)cc1)[C@@H](OP(=O)(O)O)C(C)(C)O2` [Example 1, {[(3R,4S)-6-Acetyl-4-[(4-fluorobenzene)amido]-2,2-dimethyl-3,4-dihydro-2H-1-benzopyran-3-yl]oxy}phosphonic acid] displayed a solubility in data set [1] (aqueous buffer, pH 7.0) of approximately 10000 µg/mL (≈ 22.9 mM).

Consider `CC(=O)c1ccc2c(c1)[C@H](NC(=O)c1ccc(F)c(Cl)c1)[C@H](O)C(C)(C)O2` [Tonabersat], for which the “inhibition of high K+ evoked CSD” value with high K+ evoked CSD [2] and in the data set on high K+ evoked CSD [4] was “inhibits” in each case. Further, the “binding affinity to unique stereo-selective site” value in data set [3] and in data set [5] was “high affinity” in each case. In data set [1] (pH 6.1, aqueous buffer), `CC(=O)c1ccc2c(c1)[C@H](NC(=O)c1ccc(F)cc1)[C@@H](OC(=O)CNC(=O)[C@@H]1CCCN1)C(C)(C)O2.Cl` [Example 6, (3R,4S)-6-Acetyl-4-[(4-fluorobenzene)amido]-2,2-dimethyl-3,4-dihydro-2H-1-benzopyran-3-yl 2-[(2S)-pyrrolidin-2-ylformamido]acetate hydrochloride] had a solubility of more than 10000 µg/mL. In data set [1] (aqueous buffer, pH 4.0), `CC(=O)c1ccc2c(c1)[C@H](NC(=O)c1ccc(F)cc1)[C@@H](OC(=O)OCCN1CCOCC1)C(C)(C)O2.Cl` [Example 8, (3R,4S)-6-Acetyl-4-[(4-fluorobenzene)amido]-2,2-dimethyl-3,4-dihydro-2H-1-benzopyran-3-yl 2-(morpholin-4-yl)ethyl carbonate hydrochloride] returned a solubility of approximately 10000 µg/mL.

The compound `CC(=O)c1ccc2c(c1)[C@H](NC(=O)c1ccc(F)cc1)[C@@H](OC(=O)CN)C(C)(C)O2.Cl` [Example 5, (3R,4S)-6-Acetyl-4-[(4-fluorobenzene)amido]-2,2-dimethyl-3,4-dihydro-2H-1-benzopyran-3-yl 2-aminoacetate hydrochloride] registered a solubility in data set [1] (pH 5.1, aqueous buffer) of more than 5000 µg/mL. Regarding `CC(=O)c1ccc2c(c1)[C@H](NC(=O)c1ccc(F)cc1)[C@@H](OCOP(=O)([O-])O)C(C)(C)O2.[Na+]` [Example 2, Sodium {[(3R,4S)-6-Acetyl-4-[(4-fluorobenzene)amido]-2,2-dimethyl-3,4-dihydro-2H-1-benzopyran-3-yl]oxy}methyl hydrogen phosphate], the solubility in data set [1] (aqueous buffer, pH 4.0) is more than 10000 µg/mL. The compound `CC(=O)c1ccc2c(c1)[C@H](NC(=O)c1ccc(F)cc1)[C@@H](OC(=O)CNC(C)C)C(C)(C)O2.Cl` [Example 7, (3R,4S)-6-Acetyl-4-[(4-fluorobenzene)amido]-2,2-dimethyl-3,4-dihydro-2H-1-benzopyran-3-yl 2-[(propan-2-yl)amino]acetate hydrochloride] showed a solubility in data set [1] (pH 3.5, aqueous buffer) of less than 1000 µg/mL.

The solubility is the dissolved amount per volume that the medium holds. Lower therefore signals little dissolved substance.

The values are drawn from patent US20160318892A1, “PRODRUG COMPOUNDS” (PROXIMAGEN LIMITED, priority 2013, published 2016).
